Measured values published in ChEMBL document CHEMBL1152723, “Remarkable enhancement in the DNA-binding ability of C2-fluoro substituted pyrrolo[2,1-c][1,4]benzodiazepines and their anticancer potential” (2009).

Key:
Assay type in all cases: functional
HCC 2998 = assay: Growth inhibition of human HCC2998 cells after 48 hrs by sulforhodamine B protein assay; settings: HCC 2998, 48 h
SK-MEL-5 = assay: Growth inhibition of human SK-MEL-5 cells after 48 hrs by sulforhodamine B protein assay; settings: SK-MEL-5, 48 h
M14 = assay: Growth inhibition of human M14 cells after 48 hrs by sulforhodamine B protein assay; settings: M14, 48 h
SK-MEL-2 = assay: Growth inhibition of human SK-MEL-2 cells after 48 hrs by sulforhodamine B protein assay; settings: SK-MEL-2, 48 h
NCI-H460 = assay: Growth inhibition of human NCI-H460 cells after 48 hrs by sulforhodamine B protein assay; settings: NCI-H460, 48 h
786-0 = assay: Growth inhibition of human 786-0 cells after 48 hrs by sulforhodamine B protein assay; settings: 786-0, 48 h
MDA-MB-468 = assay: Growth inhibition of human MDA-MB-468 cells after 48 hrs by sulforhodamine B protein assay; settings: MDA-MB-468, 48 h
UO-31 = assay: Growth inhibition of human UO31 cells after 48 hrs by sulforhodamine B protein assay; settings: UO-31, 48 h
SK-MEL-28 = assay: Growth inhibition of human SK-MEL-28 cells after 48 hrs by sulforhodamine B protein assay; settings: SK-MEL-28, 48 h
SN12C = assay: Growth inhibition of human SN12C cells after 48 hrs by sulforhodamine B protein assay
NCI-H226 = assay: Growth inhibition of human NCI-H226 cells after 48 hrs by sulforhodamine B protein assay; settings: NCI-H226, 48 h
T47D = assay: Growth inhibition of human T47D cells after 48 hrs by sulforhodamine B protein assay
MDA-MB-435 = assay: Growth inhibition of human MDA-MB-435 cells after 48 hrs by sulforhodamine B protein assay; settings: MDA-MB-435, 48 h
SK-OV-3 = assay: Growth inhibition of human SKOV3 cells after 48 hrs by sulforhodamine B protein assay; settings: SK-OV-3, 48 h
NCI-H322M = assay: Growth inhibition of human NCI-H322M cells after 48 hrs by sulforhodamine B protein assay
SF-539 = assay: Growth inhibition of human SF539 cells after 48 hrs by sulforhodamine B protein assay; settings: SF-539, 48 h
HCT-15 = assay: Growth inhibition of human HCT15 cells after 48 hrs by sulforhodamine B protein assay; settings: HCT-15, 48 h
NCI-H522 = assay: Growth inhibition of human NCI-H522 cells after 48 hrs by sulforhodamine B protein assay; settings: NCI-H522, 48 h
MOLT-4 = assay: Growth inhibition of human MOLT4 cells after 48 hrs by sulforhodamine B protein assay; settings: MOLT-4, 48 h
U-251 = assay: Growth inhibition of human U251 cells after 48 hrs by sulforhodamine B protein assay; settings: U-251, 48 h
MCF7 = assay: Growth inhibition of human MCF7 cells after 48 hrs by sulforhodamine B protein assay; settings: MCF7, 48 h
CCRF-CEM = assay: Growth inhibition of human CCRF-CEM cells after 48 hrs by sulforhodamine B protein assay
OVCAR-5 = assay: Growth inhibition of human OVCAR5 cells after 48 hrs by sulforhodamine B protein assay; settings: OVCAR-5, 48 h
EKVX = assay: Growth inhibition of human EKVX cells after 48 hrs by sulforhodamine B protein assay
SNB-75 = assay: Growth inhibition of human SNB75 cells after 48 hrs by sulforhodamine B protein assay; settings: SNB-75, 48 h
KM12 = assay: Growth inhibition of human KM12 cells after 48 hrs by sulforhodamine B protein assay; settings: KM12, 48 h
OVCAR-8 = assay: Growth inhibition of human OVCAR8 cells after 48 hrs by sulforhodamine B protein assay; settings: OVCAR-8, 48 h
PC-3 = assay: Growth inhibition of human PC3 cells after 48 hrs by sulforhodamine B protein assay; settings: PC-3, 48 h
BT-549 = assay: Growth inhibition of human BT549 cells after 48 hrs by sulforhodamine B protein assay; settings: BT-549, 48 h
NCI/ADR-RES = assay: Growth inhibition of human NCI/ADR-RES cells after 48 hrs by sulforhodamine B protein assay
HL-60(TB) = assay: Growth inhibition of human HL-60(TB) cells after 48 hrs by sulforhodamine B protein assay; settings: HL-60, 48 h
HCT-116 = assay: Growth inhibition of human HCT116 cells after 48 hrs by sulforhodamine B protein assay; settings: HCT-116, 48 h
SW-620 = assay: Growth inhibition of human SW620 cells after 48 hrs by sulforhodamine B protein assay; settings: SW-620, 48 h
NCI-H23 = assay: Growth inhibition of human NCI-H23 cells after 48 hrs by sulforhodamine B protein assay; settings: NCI-H23, 48 h
SF-268 = assay: Growth inhibition of human SF268 cells after 48 hrs by sulforhodamine B protein assay; settings: SF-268, 48 h
LOX IMVI = assay: Growth inhibition of human LOXIMVI cells after 48 hrs by sulforhodamine B protein assay
RXF 393 = assay: Growth inhibition of human […] cells after 48 hrs by sulforhodamine B protein assay; settings: RXF 393, 48 h
DU-145 = assay: Growth inhibition of human DU145 cells after 48 hrs by sulforhodamine B protein assay; settings: DU-145, 48 h
OVCAR-4 = assay: Growth inhibition of human OVCAR4 cells after 48 hrs by sulforhodamine B protein assay; settings: OVCAR-4, 48 h
MDA-MB-231 = assay: Growth inhibition of human MDA-MB-231 cells after 48 hrs by sulforhodamine B protein assay; settings: MDA-MB-231, 48 h
CAKI-1 = assay: Growth inhibition of human Caki1 cells after 48 hrs by sulforhodamine B protein assay; settings: CAKI-1, 48 h
[1] = Growth inhibition of human […] cells after 48 hrs by sulforhodamine B protein assay
ACHN = assay: Growth inhibition of human ACHN cells after 48 hrs by sulforhodamine B protein assay
HT-29 = assay: Growth inhibition of human HT-29 cells after 48 hrs by sulforhodamine B protein assay; settings: HT-29, 48 h
UACC-62 = assay: Growth inhibition of human UACC62 cells after 48 hrs by sulforhodamine B protein assay; settings: UACC-62, 48 h
[2] = Growth inhibition of human Hs 578T cells after 48 hrs by sulforhodamine B protein assay
SNB-19 = assay: Growth inhibition of human SNB19 cells after 48 hrs by sulforhodamine B protein assay; settings: SNB-19, 48 h
IGROV-1 = assay: Growth inhibition of human IGROV1 cells after 48 hrs by sulforhodamine B protein assay; settings: IGROV-1, 48 h

COc1cc2c(cc1OCCCN1CCN(CCCOc3cc4c(cc3OC)C(=O)N3CC(F)C[C@H]3C=N4)CC1)N=C[C@@H]1CC(F)CN1C2=O (stereo partly drawn)
GI50 (HCC 2998): 110 nM
GI50 (SK-MEL-5): < 40 nM
GI50 (M14): < 30 nM
GI50 (SK-MEL-2): 500 nM
GI50 (NCI-H460): < 10 nM
GI50 (786-0): < 30 nM
GI50 (MDA-MB-468): < 10 nM
GI50 (UO-31): 1030 nM
GI50 (SK-MEL-28): < 30 nM
GI50 (SN12C): < 10 nM
GI50 (NCI-H226): 100 nM
GI50 (T47D): < 10 nM
GI50 (MDA-MB-435): < 30 nM
GI50 (SK-OV-3): < 70 nM
GI50 (NCI-H322M): 260 nM
GI50 (SF-539): < 10 nM
GI50 (HCT-15): 2560 nM
GI50 (NCI-H522): < 10 nM
GI50 (MOLT-4): < 10 nM
GI50 (U-251): < 10 nM
GI50 (MCF7): < 10 nM
GI50 (CCRF-CEM): < 10 nM
GI50 (OVCAR-5): 160 nM
GI50 (EKVX): 170 nM
GI50 (SNB-75): < 30 nM
GI50 (KM12): 100 nM
GI50 (OVCAR-8): 100 nM
GI50 (PC-3): 10 nM
GI50 (BT-549): < 90 nM
GI50 (NCI/ADR-RES): 5.25 µM
GI50 (HL-60(TB)): < 10 nM
GI50 (HCT-116): < 20 nM
GI50 (SW-620): < 50 nM
GI50 (NCI-H23): < 30 nM
GI50 (SF-268): < 10 nM
GI50 (LOX IMVI): < 10 nM
GI50 (RXF 393): 110 nM
GI50 (DU-145): 40 nM
GI50 (OVCAR-4): 460 nM
GI50 (MDA-MB-231): 130 nM
GI50 (CAKI-1): 20 nM
GI50 [1]: < 20 nM
GI50 (ACHN): 150 nM
GI50 (HT-29): 170 nM
GI50 (UACC-62): < 80 nM
GI50 [2]: < 40 nM
GI50 (SNB-19): < 20 nM
GI50 (IGROV-1): < 50 nM
